The record followed here is patent EP2545917B1, “NOVEL EP4 AGONIST” (Kaken Pharmaceutical Co., Ltd., priority 2010, dated 2011).

For series [1], the system named is Human Platelet Aggregation. Briefly: Inhibitory effect on ADP-induced platelet aggregation in platelet-rich plasma. The note with it: ADP 10 µmol/L, geometric mean of three volunteers. The class given is cell-based. As to the method:
The inhibitory effect of compounds F and J, and carboxylate forms thereof on platelet aggregation was evaluated. The carboxylate forms were prepared by separating and purifying the compound synthesized in Example 15 with a column. Blood was drawn from 3 healthy volunteers using sodium citrate as an anticoagulant, and platelet-rich plasma was prepared. The platelet-rich plasma was treated with physiological saline or test compounds and, 2 min later, platelet aggregation was induced with adenosine diphosphate (ADP, final concentration 10 µmol/L) and recorded with a platelet aggregation measurement apparatus (nephelometry).

The subject of series [2] is blood pressure and heart rate. Briefly: Effect on blood pressure and heart rate in mice. It is filed as in vivo, ICR mice. The note with it: intravenous 0.01 mg/5 mL/kg, isoflurane anesthesia. On the procedure: Male ICR mice (5 weeks old, Japan SLC) were purchased, acclimated for 6 days and used for the test. The animals were treated and measured under isoflurane inhalation anesthesia (anesthesia introduced at 2.5%, maintained at 1.8-2.1%), while body temperature was kept at 37°C with a Heat Controller (ATC-402, Unique Medical Co., Ltd.). A catheter for administration of test compounds was inserted into the left femoral vein, and another catheter was inserted into the right femoral artery and connected to a pressure transducer to record each parameter of hemodynamics.
Compound F, the carboxylate form of compound F and BPS were intravenously administered at a dose of 0.01 mg/5 mL/kg, and the effect on the mean blood pressure and heart rate was evaluated with computer software for the analysis of hemodynamics (Fluclet, Dainippon Sumitomo Pharma Co., Ltd.). To the control group was intravenously administered a solvent (1.2% ethanol solution) at 5 mL/kg in the same manner. The results are expressed as a ratio of change in each parameter before and after the drug administration. Three to 6 animals were used for each group, and the results were expressed as average ± standard deviation.

Series [3] deals with dextran sodium sulfate-induced colitis. Briefly: Prophylactic effect on dextran sodium sulfate-induced colitis in rats. The class given is in vivo. The note with it: SD rats, 5.5 w/v% DSS, oral 1 mg/kg and 3 mg/kg once a day. On the procedure: Prophylactic effect of compound F on colitis was also studied in rats. Male SD rats, 7 weeks old, body weight around 210 g - 240 g (Charles River) were purchased, acclimated for 1 week and used for the study. Except the normal group, the rats were allowed to freely drink a DSS (MP Biochemicals, M.W. 36,000-50,000, Lot No. 4556J) solution prepared to 5.5 w/v% for 8 days to induce colitis. Compound F at doses of 0.3, 1 and 3 mg/kg was orally administered once a day, daily, from one day before the start day of DSS drinking to one day before autopsy (day 7). To the control group was orally administered a solvent (1 vol% ethanol solution) at 5 mL/kg.
On day 8 from the start of DSS drinking, 1.25 w/v% Evans blue solution was administered at 0.2 mL/100 g from the tail vein. After 30 min, the rats were subjected to laparotomy under ether anesthesia and exsanguinated to death. Thereafter, the large intestine was dissected from just below the cecum to the anus, and the length was measured with a scale. […] The next day, the dry weight was measured, formamide (2 mL) was added, the dye was extracted at 50°C overnight, and the level thereof was measured at 620 nm. A standard curve was prepared using an Evans blue standard solution, and the amount (mg) of Evans blue in 1 g of the colonic tissue was calculated to estimate degree of colonic tissue injury. […]

Series [4] shares this test system. The experiment in a line: Therapeutic effect on remission/relapse model of dextran sodium sulfate-induced colitis in mice. The class given is in vivo, BALB/c mice. An excerpt: Next, therapeutic effect of compound F on colitis was studied in a chronic model. Female BALB/c mice, 6 weeks old, body weight about 20 g (Japan SLC) were purchased, acclimated for 1 week and used for the study. The mice were divided into a colitis induction group and a normal group. The colitis induction group was allowed to freely drink a 2.6 w/v% DSS (MP Biochemicals, M.W. 36,000- 50,000, Lot No. 4556J) solution to induce colitis. On day 8 when the stool score (defined in Example 23) of the colitis induction group reached about 4.5, the mice were subdivided into a control group, a compound F 1 mg/kg administration group and a salazosulfapyridine (SIGMA, Lot No. 085K1930, hereinafter to be abbreviated as SASP) 100 mg/kg administration group. Then the mice were allowed to freely drink distilled water instead of DSS solution for 9 days (remission period). After the grouping, the stool score was evaluated every 3 - 4 days. When the score of the control group reached about 1, the mice were again allowed to drink the DSS solution to cause a relapse (relapse period). The periods of remission and relapse were taken as 1 cycle and the cycle was repeated 5 times. As for the 5th cycle, however, only the remission period was performed.
Compound F at a dose of 1 mg/kg and SASP at a dose of 100 mg/kg were orally administered once a day, daily, for 50 days from the initial remission period (day 8 from the start of 2.6 w/v% DSS drinking) to the fifth remission period (day 57 from the start of 2.6 w/v% DSS drinking). To the control group was orally administered a solvent (1 vol% ethanol solution) at 10 mL/kg. If a mouse had score 0 of both stool consistency score and occult blood score on the last day of each remission period, the mouse was regarded as "in remission". The remission ratio (%) was calculated as a ratio of mice in remission in each group. Eight to 10 mice were used for each group and the results are shown in average value.

Setting [5] is: mice, oral once a day, Compound F 1 mg/kg, SASP 100 mg/kg.

Each structure is given as a SMILES string.

Regarding `Cc1cccc([C@@H](C)[C@H](O)/C=C/[C@@H]2[C@@H]3[C@H](C[C@H]2O)O/C(=C\CCCc2nnn[nH]2)C3(F)F)c1` [Compound F, 4-[(Z)-(1S,5R,6R,7R)-6-[(1E,3R,4R)-3-hydroxy-4-(m-tolyl)-1-pentenyl]-7-hydroxy-2-oxa-4,4-difluoro-bicyclo[3.3.0]octan-3-ylidene]-1-(tetrazol-5-yl)butane], inhibition in series [1] was half-maximal at 0.917 µM (IC50). Further, in series [2], the “effect on heart rate” value is listed as “little effect on the heart rate” and the “maximum decrease ratio of mean blood pressure” value is listed as 16.2%. Moreover, the “effect on stool score, colonic tissue injury and shortening of the large intestine” value in series [3] is “a suppressive tendency or significant suppressive effect on these events”. Besides, in series [4] (average of 5 remission periods, Compound F 1 mg/kg, SASP 100 mg/kg), the “Remission Ratio Average” value was 66.0%. Further, the “remission ratio in any remission period” value in series [4] (mice, oral 1 mg/kg once a day) is on record as “not less than 60%”. Besides, the “effect on stool score in remission and relapse periods” value in series [4] (mice, oral once a day for 50 days, compound F 1 mg/kg, SASP 100 mg/kg) is “decreased the stool score early in the remission period, and suppressed an increase in the score in the relapse period”. In series [4] (setting [5]), the “Remission Ratio Cycle 1” value is listed as 60.0%, the “Remission Ratio Cycle 2” value is 80.0%, the “Remission Ratio Cycle 3” value came to 70.0% and the “Remission Ratio Cycle 4” value is recorded as 60.0%. Moreover, the “Remission Ratio Cycle 5” value in series [4] (setting [5]) is given as 60.0%.
